According to ChEMBL document CHEMBL4402573, “Discovery and Optimization of α-Mangostin Derivatives as Novel PDE4 Inhibitors for the Treatment of Vascular Dementia” (J Med Chem, 2020):
pIC50: −log10 of the molar value. Activity calls are given as the source filed them. The calls are words filed in the database; no cut-off is given here.

Assays:
[1] = Cmax in Sprague-Dawley rat at 2.5 mg/kg, iv measured upto 24 hrs by LC-MS/MS analysis; type: ADME, organism-based; design: dose 2.5 mg/kg, route intravenous; settings: in vivo
[2] = tested on: Mus musculus; test: Anti-VaD activity against UCCAO-induced spatial memory deficient C57BL/6J mouse model assessed as improvement in spatial learning and memory by measuring reduction in escape latency at 10 mg/kg, po administered for 21 days by Morris water maze test; type: functional, organism-based
[3] = Half life in Sprague-Dawley rat at 2.5 mg/kg, iv measured upto 24 hrs by LC-MS/MS analysis; type: ADME, organism-based; settings: in vivo
[4] = target: T1, 3',5'-cyclic-AMP phosphodiesterase 4B (Homo sapiens, UniProt Q07343); test: Inhibition of human PDE4B2 (152 to 487 residues) expressed in Escherichia coli BL21 codon-plus cells using [3H]cAMP as substrate incubated for 15 mins by liquid scintillation counting method
T1 sequence (Q07343 whole entry, the tested form may be a part): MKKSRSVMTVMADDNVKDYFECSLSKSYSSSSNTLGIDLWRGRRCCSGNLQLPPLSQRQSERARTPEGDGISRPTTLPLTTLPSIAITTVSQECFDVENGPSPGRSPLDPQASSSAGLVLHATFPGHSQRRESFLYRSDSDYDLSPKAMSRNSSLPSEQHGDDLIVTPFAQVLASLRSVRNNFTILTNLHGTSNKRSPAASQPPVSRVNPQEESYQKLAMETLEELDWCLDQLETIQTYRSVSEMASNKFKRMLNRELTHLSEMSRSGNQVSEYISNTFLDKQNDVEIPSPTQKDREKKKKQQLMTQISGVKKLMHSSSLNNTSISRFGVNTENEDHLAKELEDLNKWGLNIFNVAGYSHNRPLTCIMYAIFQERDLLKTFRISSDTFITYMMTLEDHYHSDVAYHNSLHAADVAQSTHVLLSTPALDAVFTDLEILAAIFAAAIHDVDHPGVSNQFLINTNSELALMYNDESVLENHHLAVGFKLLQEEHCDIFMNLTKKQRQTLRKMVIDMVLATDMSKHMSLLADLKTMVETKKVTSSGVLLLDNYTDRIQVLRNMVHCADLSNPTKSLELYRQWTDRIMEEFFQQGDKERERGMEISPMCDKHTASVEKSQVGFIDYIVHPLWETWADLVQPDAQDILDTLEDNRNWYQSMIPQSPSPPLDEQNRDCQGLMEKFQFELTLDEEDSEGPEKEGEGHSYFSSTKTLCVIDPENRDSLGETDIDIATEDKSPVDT

[5] = target: 3',5'-cyclic-AMP phosphodiesterase 4D (Homo sapiens, UniProt Q08499); test: Inhibition of human PDE4D2 (86 to 413 residues) expressed in Escherichia coli BL21 codon-plus cells using [3H]cAMP as substrate incubated for 15 mins by liquid scintillation counting method
3',5'-cyclic-AMP phosphodiesterase 4D, sequence (Q08499 whole entry, the tested form may be a part): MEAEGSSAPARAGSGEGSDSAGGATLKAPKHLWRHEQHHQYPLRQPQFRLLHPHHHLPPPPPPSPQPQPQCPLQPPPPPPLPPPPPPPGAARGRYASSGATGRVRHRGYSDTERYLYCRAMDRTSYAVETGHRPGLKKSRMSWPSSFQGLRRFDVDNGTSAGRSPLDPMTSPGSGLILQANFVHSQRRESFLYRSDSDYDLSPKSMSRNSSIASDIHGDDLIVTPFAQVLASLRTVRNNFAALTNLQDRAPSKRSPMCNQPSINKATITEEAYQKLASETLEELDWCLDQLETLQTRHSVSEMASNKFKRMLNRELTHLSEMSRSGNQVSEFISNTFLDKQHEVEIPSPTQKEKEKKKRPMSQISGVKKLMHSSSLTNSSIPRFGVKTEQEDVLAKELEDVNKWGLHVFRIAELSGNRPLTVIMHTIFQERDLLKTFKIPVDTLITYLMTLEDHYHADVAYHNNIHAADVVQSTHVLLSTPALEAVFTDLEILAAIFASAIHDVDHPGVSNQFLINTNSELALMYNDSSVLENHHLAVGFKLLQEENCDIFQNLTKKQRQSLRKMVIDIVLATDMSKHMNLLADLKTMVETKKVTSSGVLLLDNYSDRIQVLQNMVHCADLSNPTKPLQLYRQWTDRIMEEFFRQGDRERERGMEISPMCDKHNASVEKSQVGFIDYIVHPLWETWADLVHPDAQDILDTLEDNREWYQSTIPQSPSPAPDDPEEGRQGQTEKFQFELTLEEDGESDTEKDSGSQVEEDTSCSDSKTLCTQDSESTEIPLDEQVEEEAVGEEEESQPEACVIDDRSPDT

[6] = target: T1, 3',5'-cyclic-AMP phosphodiesterase 4B; test: Inhibition of human PDE4B1 (1 to 736 residues) expressed in Escherichia coli BL21 codon-plus cells using [3H]cAMP as substrate incubated for 15 mins by liquid scintillation counting method
[7] = target: cGMP-specific 3',5'-cyclic phosphodiesterase (Homo sapiens, UniProt O76074); test: Inhibition of human PDE5A1 (535 to 860 residues) expressed in Escherichia coli BL21 codon-plus cells using [3H]cGMP as substrate incubated for 15 mins by liquid scintillation counting method
[8] = organism: Homo sapiens; test: Selectivity index, ratio of IC50 for human PDE8A1 (480 to 820 residues) expressed in Escherichia coli BL21 codon-plus cells to IC50 for human PDE4D2 (86 to 413 residues) expressed in Escherichia coli BL21 codon-plus cells
[9] = organism: Homo sapiens; test: Selectivity index, ratio of IC50 for human PDE9A2 (181 to 506 residues) expressed in Escherichia coli BL21 codon-plus cells to IC50 for human PDE4D2 (86 to 413 residues) expressed in Escherichia coli BL21 codon-plus cells
[10] = Toxicity in Beagle dog assessed as animals exhibiting emesis at 10 mg/kg, po observed for 180 mins; type: organism-based, Canis lupus familiaris; settings: in vivo, 3 h
[11] = AUC(0 to t) in Sprague-Dawley rat at 2.5 mg/kg, iv measured upto 24 hrs by LC-MS/MS analysis; type: ADME, organism-based; design: dose 2.5 mg/kg, time < 24 hr, route intravenous; settings: in vivo
[12] = Half life in Sprague-Dawley rat at 5 mg/kg, po measured upto 24 hrs by LC-MS/MS analysis; type: ADME, organism-based; settings: in vivo
[13] = AUC(0 to infinity) in Sprague-Dawley rat at 5 mg/kg, po measured upto 24 hrs by LC-MS/MS analysis; type: ADME, organism-based; design: dose 5 mg/kg, time infinity, route oral; settings: in vivo
[14] = Oral bioavailability in Sprague-Dawley rat at 5 mg/kg measured upto 24 hrs by LC-MS/MS analysis; type: ADME, organism-based; settings: in vivo
[15] = target: Cytochrome P450 2B6 (Homo sapiens, UniProt P20813); test: Inhibition of human CYP2B6; type: ADME
Cytochrome P450 2B6, sequence (P20813 whole entry): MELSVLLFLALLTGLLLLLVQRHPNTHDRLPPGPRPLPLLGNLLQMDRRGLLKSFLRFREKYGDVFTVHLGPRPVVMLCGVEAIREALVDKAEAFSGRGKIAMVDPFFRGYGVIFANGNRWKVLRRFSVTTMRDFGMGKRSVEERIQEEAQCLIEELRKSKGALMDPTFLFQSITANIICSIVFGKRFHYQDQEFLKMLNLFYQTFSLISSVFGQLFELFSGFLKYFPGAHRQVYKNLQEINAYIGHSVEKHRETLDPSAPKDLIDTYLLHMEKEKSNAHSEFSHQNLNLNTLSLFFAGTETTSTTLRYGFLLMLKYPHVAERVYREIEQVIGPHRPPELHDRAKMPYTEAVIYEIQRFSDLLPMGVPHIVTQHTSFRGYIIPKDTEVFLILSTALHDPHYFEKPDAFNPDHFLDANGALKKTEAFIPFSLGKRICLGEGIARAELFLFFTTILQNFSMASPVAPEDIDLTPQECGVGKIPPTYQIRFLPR

[16] = target: Cytochrome P450 2C9 (Homo sapiens, UniProt P11712); test: Inhibition of human CYP2C9; type: ADME
Cytochrome P450 2C9, sequence (P11712 whole entry): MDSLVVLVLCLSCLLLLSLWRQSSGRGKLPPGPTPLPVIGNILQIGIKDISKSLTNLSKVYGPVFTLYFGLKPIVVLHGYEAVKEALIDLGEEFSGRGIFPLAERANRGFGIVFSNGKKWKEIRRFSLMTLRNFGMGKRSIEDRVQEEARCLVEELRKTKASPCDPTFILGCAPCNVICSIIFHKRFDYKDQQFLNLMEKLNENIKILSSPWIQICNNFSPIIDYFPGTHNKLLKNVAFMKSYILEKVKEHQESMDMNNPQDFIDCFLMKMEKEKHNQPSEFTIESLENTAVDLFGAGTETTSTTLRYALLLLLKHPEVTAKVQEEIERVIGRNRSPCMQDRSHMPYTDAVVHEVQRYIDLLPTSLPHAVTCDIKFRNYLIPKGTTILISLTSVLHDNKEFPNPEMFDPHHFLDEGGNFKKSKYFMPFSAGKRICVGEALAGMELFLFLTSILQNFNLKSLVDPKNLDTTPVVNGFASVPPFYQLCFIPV

[17] = target: Cytochrome P450 2D6 (Homo sapiens, UniProt P10635); test: Inhibition of human CYP2D6; type: ADME
Cytochrome P450 2D6, sequence (P10635 whole entry): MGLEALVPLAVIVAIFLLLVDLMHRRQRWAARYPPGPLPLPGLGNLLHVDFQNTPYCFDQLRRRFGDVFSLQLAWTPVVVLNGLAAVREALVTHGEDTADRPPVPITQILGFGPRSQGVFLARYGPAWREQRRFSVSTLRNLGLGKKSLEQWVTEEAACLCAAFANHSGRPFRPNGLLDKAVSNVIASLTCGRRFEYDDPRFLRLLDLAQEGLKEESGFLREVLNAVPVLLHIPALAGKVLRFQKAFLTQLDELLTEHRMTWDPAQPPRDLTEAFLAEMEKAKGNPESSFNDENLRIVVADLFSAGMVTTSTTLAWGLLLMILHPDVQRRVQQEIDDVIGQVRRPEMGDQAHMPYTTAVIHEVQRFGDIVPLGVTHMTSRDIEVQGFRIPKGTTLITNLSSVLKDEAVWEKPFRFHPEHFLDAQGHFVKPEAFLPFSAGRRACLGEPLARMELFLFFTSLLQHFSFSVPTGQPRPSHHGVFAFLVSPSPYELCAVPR

[18] = Acute toxicity in Kunming mouse at >=1.5 g/kg, po administered as single dose and measured for 14 days; type: organism-based; settings: in vivo, 1500 mg/kg, 336 h
[19] = tested on: RAW264.7; test: Antiinflammatory activity in mouse RAW264.7 assessed as reduction in LPS-induced NO production incubated for 24 hrs by Griess method; type: functional, cell-based

For `COc1c(OCCCCCCC(=O)O)cc2oc3cc4c(c(O)c3c(=O)c2c1CC=C(C)C)C=CC(C)(C)O4`, which Cmax [1] is on record?
Its Cmax is 14100 ng/mL.

And the Activity [2]?
Its Activity is “Active”.

And the half-life [3]?
The half-life was 4.28 h.

And the pIC50 [4]?
The pIC50 was 8.00.

What about the pIC50 [5] of the same compound?
The pIC50 was 7.77.

What about the pIC50 [6] of the same compound?
Its pIC50 is 8.10.

And the pIC50 [7]?
Its pIC50 is 5.47.

What about the Ratio IC50 [8] of the same compound?
Its Ratio IC50 is over 580.

And the Ratio IC50 [9]?
Its Ratio IC50 is over 580.

And the Activity [10]?
The Activity was 0%.

What about the AUC(0-t) at 24 h [11] of the same compound?
The AUC(0-t) at 24 h was 6670 ng·h/mL.

What about the half-life [12] of the same compound?
Its half-life is 3.48 h.

And the AUC(0-inf) [13]?
Its AUC(0-inf) is 4790 ng·h/mL.

And the bioavailability [14]?
Its bioavailability is 28%.

And the pIC50 [15]?
The pIC50 was under 5.00.

And the pIC50 [16]?
Its pIC50 is under 5.00.

And the pIC50 [17]?
Its pIC50 is under 5.00.

And the Activity [18]?
The Activity was “Non-Toxic”.

And the Activity [19]?
Its Activity is “Dose-dependent effect”.
